Laboratory results: the NIST ThermoML archive (doi:10.1016/j.jct.2016.04.006)
Numbers after ± are expanded uncertainties.

How the values were obtained:
[1] = mn = molality of the nth substance listed, in mol/kg; conditions: 100 kPa, Liquid, Capillary tube (Ostwald / Ubbelohde) method
[2] = 100 kPa, Liquid, Capillary tube (Ostwald / Ubbelohde) method

OC[C@@H](O)[C@@H](O)[C@H](O)[C@H](O)CO [D-mannitol] + O
viscosity [mPa·s], [1]
Conditions	m1 = 0.0578	m1 = 0.0701	m1 = 0.0837	m1 = 0.12	m1 = 0.1409	m1 = 0.1659	m1 = 0.1943
288.15 K	1.181 ± 0.022	1.19 ± 0.022	1.199 ± 0.022	1.224 ± 0.022	1.236 ± 0.022	1.254 ± 0.022	1.278 ± 0.022
298.15 K	0.919 ± 0.021	0.928 ± 0.021	0.935 ± 0.021	0.949 ± 0.021	0.959 ± 0.021	0.974 ± 0.021	0.986 ± 0.022
308.15 K	0.741 ± 0.021	0.746 ± 0.021	0.753 ± 0.021	0.763 ± 0.021	0.771 ± 0.021	0.779 ± 0.021	0.791 ± 0.021
318.15 K	0.611 ± 0.02	0.617 ± 0.02	0.62 ± 0.02	0.629 ± 0.021	0.636 ± 0.021	0.644 ± 0.021	0.651 ± 0.021

O=C[C@@H](O)[C@@H](O)[C@H](O)[C@H](O)CO [D-mannose] + O
viscosity [mPa·s], [1]
Conditions	m1 = 0.0607	m1 = 0.0751	m1 = 0.0977	m1 = 0.1215	m1 = 0.134	m1 = 0.1525	m1 = 0.1822
288.15 K	–	1.183 ± 0.022	1.195 ± 0.022	1.207 ± 0.022	1.216 ± 0.022	1.224 ± 0.022	1.243 ± 0.022
298.15 K	–	0.921 ± 0.021	0.931 ± 0.021	0.94 ± 0.021	0.945 ± 0.021	0.954 ± 0.021	0.966 ± 0.022
308.15 K	0.739 ± 0.021	0.744 ± 0.021	0.749 ± 0.021	0.757 ± 0.021	0.76 ± 0.021	0.767 ± 0.021	0.776 ± 0.021
318.15 K	0.61 ± 0.02	0.614 ± 0.02	0.62 ± 0.02	0.625 ± 0.021	0.629 ± 0.021	0.635 ± 0.021	0.64 ± 0.021

O [water]
[2]
Conditions	viscosity [mPa·s]
288.15 K	1.138 ± 0.021
298.15 K	0.89 ± 0.021
308.15 K	0.719 ± 0.02
318.15 K	0.596 ± 0.02

CO[C@H]1O[C@H](CO)[C@@H](O)[C@H](O)[C@@H]1O [α-methyl mannopyranoside] + O
viscosity [mPa·s], [1]
Conditions	m1 = 0.0569	m1 = 0.0853	m1 = 0.1142	m1 = 0.1318	m1 = 0.1443
288.15 K	1.172 ± 0.021	1.188 ± 0.022	1.208 ± 0.022	1.217 ± 0.022	1.229 ± 0.022
298.15 K	0.913 ± 0.021	0.925 ± 0.021	0.942 ± 0.021	0.95 ± 0.021	0.96 ± 0.023
308.15 K	0.742 ± 0.021	0.75 ± 0.021	0.756 ± 0.021	0.765 ± 0.021	0.77 ± 0.021
318.15 K	0.61 ± 0.02	0.619 ± 0.02	0.625 ± 0.021	0.633 ± 0.021	0.636 ± 0.021
